This note sets out measurements from patent US12527755B2, “Formulations containing acetaminophen and sulfoalkyl ether cyclodextrin” (CyDex Pharmaceuticals, Inc., priority 2016, dated 2026).

Structures are written as SMILES. Values after ≈ are worked out from the molar mass of the structure shown.

Usually solubility stands for the dissolved amount per volume that the medium holds. A high value points to much dissolved substance.

This series in a line: physchem. The note with it: for solubility: pH 7, aqueous buffer, thermodynamic from solid. How it is done:
The acetaminophen solubility was measured at 25° C. and 5° C.

`CC(=O)Nc1ccc(O)cc1` [acetaminophen, N-acetyl-p-aminophenol] had a solubility (5 °C) of roughly 8.86 mg/mL (≈ 58.6 mM) and a solubility (25 °C) of roughly 16 mg/mL (≈ 106 mM). Besides, the “CAPTISOL® concentration with which a 10 mg/ml acetaminophen solution can be made” value (pH 7) is “less than 0.05 M”.
